Reference: ChEMBL document CHEMBL1201862, “PubChem BioAssay data set” (2004)
Activity calls are given as the source filed them.

Experiments:
[1] = test system: MDCK; experiment: antiviral activity against H1N1 influenza, dose response, cell-based, strain KY180 (AID 540254); assay type: functional; conditions: Canis lupus familiaris
[2] = test system: MDCK; experiment: MDCK cell cytotoxicity, dose response, cytotoxicity control (AID 540296); assay type: functional; conditions: Canis lupus familiaris
[3] = target: Heat shock 70 kDa protein 1A (Homo sapiens, UniProt P0DMV8); experiment: Hsp70 inhibitors, SAR follow-up, biochemical, fluorescence polarization (AID 1072)
[4] = target: T1, Dual specificity protein phosphatase 6 (Rattus norvegicus, UniProt Q64346)
[5] = target: T2, Tyrosine-protein phosphatase non-receptor type 7 (Homo sapiens, UniProt P35236); assay type: functional
T2 sequence (P35236 whole entry): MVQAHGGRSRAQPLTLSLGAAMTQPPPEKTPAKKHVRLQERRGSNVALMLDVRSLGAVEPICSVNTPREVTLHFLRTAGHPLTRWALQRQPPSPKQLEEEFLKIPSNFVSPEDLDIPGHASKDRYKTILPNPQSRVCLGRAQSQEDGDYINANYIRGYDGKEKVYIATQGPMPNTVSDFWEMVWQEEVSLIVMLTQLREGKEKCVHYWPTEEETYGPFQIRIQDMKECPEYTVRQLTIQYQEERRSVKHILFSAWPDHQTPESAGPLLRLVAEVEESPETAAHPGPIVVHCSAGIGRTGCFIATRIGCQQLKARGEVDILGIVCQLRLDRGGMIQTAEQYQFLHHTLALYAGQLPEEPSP

[6] = target: Glyceraldehyde-3-phosphate dehydrogenase (Homo sapiens, UniProt P04406)
[7] = target: T1, Dual specificity protein phosphatase 6; assay type: functional
[8] = target: Heat shock cognate 71 kDa protein (Homo sapiens, UniProt P11142); experiment: In Vitro Hsc70 Dose Response Fluorescence Polarization Assay. [Related pubchem assays: 1072 ]
[9] = Luminescence Cell-Based Dose Response HTS to Identify Inhibitors of 5'UTR Stem-Loop Driven Prion Protein mRNA Translation in H4 Neuroglioblastoma Cells. [Related pubchem assays: 1827 (Project Summary), 1813 (Primary HTS)]; assay type: functional
[10] = inhibitors of SNCA 5'UTR-driven reporter translation, confirmation, H4 neuroglioma cells, luminescence (AID 1988); assay type: functional, cell-based
[11] = inhibitors of firefly luciferase expression or activity, dose response, H4 neuroglioma cells, luminescence (AID 1990); assay type: functional, cell-based
[12] = target: Exodeoxyribonuclease V (Escherichia coli (strain K12), UniProt P04993+P07648+P08394); experiment: E. coli RecBCD inhibitors, dose response, counter-screen for AddAB inhibitor project, absorbance, V66 E. coli, mutant T4 phage (AID 492957); assay type: functional, cell-based, Escherichia coli str. K-12 substr. MG1655
[13] = Counterscreen for AddAB inhibitors: absorbance-based bacterial cell-based high throughput dose response assay for inhibitors of bacterial viability. [Related pubchem assays (depositor defined):AID435030, AID449728, AID449731, AID488942, AID488955, AID488956]; assay type: functional
[14] = target: Lysine-specific demethylase 4C (Homo sapiens, UniProt Q9H3R0); experiment: GASC-1 (JMJD2C) histone demethylase inhibitors, dose response, biochemical, DELFIA europium, cherry-picked samples (AID 488835); assay type: functional
[15] = target: Intestinal-type alkaline phosphatase (Mus musculus, UniProt P24822); experiment: mouse intestinal alkaline phosphatase activators, dose response, biochemical, luminescence, uHTS hits (AID 488783); assay type: functional
[16] = target: Intestinal-type alkaline phosphatase (Homo sapiens, UniProt P09923); experiment: activation of human intestinal alkaline phosphatase – biochemical, dose response (AID 488873); assay type: functional
[17] = target: T3, Mannose-6-phosphate isomerase (Homo sapiens, UniProt P34949); experiment: human PMI inhibitors, high substrate, primary screen, biochemical, fluorescence intensity, high mannose 6-phosphate (AID 1220)
T3 sequence (P34949 whole entry): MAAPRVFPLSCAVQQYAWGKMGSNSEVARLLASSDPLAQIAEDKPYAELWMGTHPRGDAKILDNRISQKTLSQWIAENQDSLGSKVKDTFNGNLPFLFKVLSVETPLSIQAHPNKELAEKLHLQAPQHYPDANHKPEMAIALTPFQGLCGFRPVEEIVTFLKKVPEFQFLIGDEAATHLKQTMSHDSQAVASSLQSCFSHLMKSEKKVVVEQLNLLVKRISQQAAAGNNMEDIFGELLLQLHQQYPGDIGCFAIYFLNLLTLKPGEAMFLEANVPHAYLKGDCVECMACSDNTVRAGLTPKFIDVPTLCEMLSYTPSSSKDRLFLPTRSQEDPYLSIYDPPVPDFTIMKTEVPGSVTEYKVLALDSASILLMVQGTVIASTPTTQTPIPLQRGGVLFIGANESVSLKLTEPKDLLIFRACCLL

[18] = target: Estrogen receptor beta (Homo sapiens, UniProt Q92731); experiment: ERβ–SRC-3 coactivator interaction inhibitors, confirmation, orthogonal assay, biochemical, ELISA, streptavidin-HRP readout (AID 1060)
[19] = target: T4, Alkaline phosphatase, tissue-nonspecific isozyme (Homo sapiens, UniProt P05186); experiment: TNAP enzyme activators, dose response, selectivity assay for mouse IAP activator project, biochemical, TNAP isozyme, mouse IAP uHTS hits (AID 488880); assay type: functional
T4 sequence (P05186 whole entry): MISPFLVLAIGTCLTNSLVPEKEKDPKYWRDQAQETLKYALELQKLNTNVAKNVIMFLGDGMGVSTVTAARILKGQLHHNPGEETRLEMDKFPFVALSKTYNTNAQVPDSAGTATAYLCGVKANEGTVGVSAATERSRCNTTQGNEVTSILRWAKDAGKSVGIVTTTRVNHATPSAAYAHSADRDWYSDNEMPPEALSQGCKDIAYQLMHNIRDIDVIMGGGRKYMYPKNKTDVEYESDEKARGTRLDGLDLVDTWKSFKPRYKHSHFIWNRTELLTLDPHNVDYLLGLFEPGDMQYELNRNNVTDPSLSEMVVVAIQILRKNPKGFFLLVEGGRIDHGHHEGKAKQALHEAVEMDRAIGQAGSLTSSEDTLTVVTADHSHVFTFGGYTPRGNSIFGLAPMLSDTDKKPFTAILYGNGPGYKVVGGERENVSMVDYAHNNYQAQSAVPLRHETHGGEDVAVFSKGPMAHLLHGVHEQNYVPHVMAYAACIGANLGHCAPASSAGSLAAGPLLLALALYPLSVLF

[20] = target: Delta-type opioid receptor (Homo sapiens, UniProt P41143); experiment: SAR Analysis of Agonists of the DOR Receptor using an Image-Based Assay - Set 3. [Related pubchem assays (depositor defined):AID1777, AID1786]; assay type: functional
[21] = target: Mu-type opioid receptor (Homo sapiens, UniProt P35372); experiment: SAR Analysis of Agonists of the MOR Receptor using an Image-Based Assay - Set 3. [Related pubchem assays (depositor defined):AID1777, AID1785, AID1786, AID1966, AID2133, AID2136, AID2284, AID2285, AID2352]; assay type: functional
[22] = target: T5, Kappa-type opioid receptor (Homo sapiens, UniProt P41145); experiment: KOR agonist analogs, arrestin-GFP redistribution, SAR follow-up, imaging, image-based, set 3 (AID 488833); assay type: functional
[23] = target: T5, Kappa-type opioid receptor; experiment: SAR analysis of small molecule agonists of the kappa opioid receptor via a luminescent beta-arrestin assay - Set 3. [Related pubchem assays (depositor defined):AID1777, AID1785, AID1786, AID1966, AID2133, AID2136, AID2284, AID2500]; assay type: functional

T5 sequence (P41145 whole entry): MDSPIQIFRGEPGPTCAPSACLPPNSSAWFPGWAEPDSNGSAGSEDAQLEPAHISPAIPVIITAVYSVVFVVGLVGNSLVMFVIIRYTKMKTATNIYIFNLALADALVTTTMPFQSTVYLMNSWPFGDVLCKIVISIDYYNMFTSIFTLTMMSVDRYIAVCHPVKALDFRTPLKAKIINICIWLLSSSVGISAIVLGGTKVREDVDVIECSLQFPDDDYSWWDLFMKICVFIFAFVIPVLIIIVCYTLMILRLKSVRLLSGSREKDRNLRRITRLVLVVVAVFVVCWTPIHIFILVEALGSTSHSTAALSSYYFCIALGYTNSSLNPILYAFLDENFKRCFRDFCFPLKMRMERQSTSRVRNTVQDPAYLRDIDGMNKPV
T1 sequence (Q64346 whole entry): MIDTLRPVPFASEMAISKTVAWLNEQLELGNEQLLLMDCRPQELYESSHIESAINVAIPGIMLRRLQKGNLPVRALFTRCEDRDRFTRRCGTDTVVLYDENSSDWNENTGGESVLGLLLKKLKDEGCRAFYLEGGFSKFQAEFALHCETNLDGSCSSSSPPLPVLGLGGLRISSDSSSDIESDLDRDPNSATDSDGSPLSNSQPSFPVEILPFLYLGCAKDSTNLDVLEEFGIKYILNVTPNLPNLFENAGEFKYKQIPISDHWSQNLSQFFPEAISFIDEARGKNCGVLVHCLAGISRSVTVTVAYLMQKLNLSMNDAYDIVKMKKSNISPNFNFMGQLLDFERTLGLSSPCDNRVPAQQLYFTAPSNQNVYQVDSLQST
Sequence of Intestinal-type alkaline phosphatase (Mus musculus, UniProt P24822) (P24822 whole entry): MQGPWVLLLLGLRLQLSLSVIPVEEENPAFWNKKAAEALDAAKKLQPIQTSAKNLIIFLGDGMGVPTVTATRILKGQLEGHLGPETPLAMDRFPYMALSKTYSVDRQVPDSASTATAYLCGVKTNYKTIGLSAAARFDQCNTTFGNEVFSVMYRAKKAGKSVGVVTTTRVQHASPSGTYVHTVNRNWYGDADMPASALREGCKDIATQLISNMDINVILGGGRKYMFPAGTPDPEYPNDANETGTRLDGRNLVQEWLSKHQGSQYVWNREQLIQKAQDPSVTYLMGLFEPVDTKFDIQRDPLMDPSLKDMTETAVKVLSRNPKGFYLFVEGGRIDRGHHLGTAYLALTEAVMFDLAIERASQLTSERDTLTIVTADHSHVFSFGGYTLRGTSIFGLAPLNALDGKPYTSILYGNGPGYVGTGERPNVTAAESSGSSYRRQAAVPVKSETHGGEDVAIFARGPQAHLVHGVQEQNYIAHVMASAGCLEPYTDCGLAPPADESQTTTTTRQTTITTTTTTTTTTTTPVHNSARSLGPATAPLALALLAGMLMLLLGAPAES
Sequence of Delta-type opioid receptor (P41143 whole entry): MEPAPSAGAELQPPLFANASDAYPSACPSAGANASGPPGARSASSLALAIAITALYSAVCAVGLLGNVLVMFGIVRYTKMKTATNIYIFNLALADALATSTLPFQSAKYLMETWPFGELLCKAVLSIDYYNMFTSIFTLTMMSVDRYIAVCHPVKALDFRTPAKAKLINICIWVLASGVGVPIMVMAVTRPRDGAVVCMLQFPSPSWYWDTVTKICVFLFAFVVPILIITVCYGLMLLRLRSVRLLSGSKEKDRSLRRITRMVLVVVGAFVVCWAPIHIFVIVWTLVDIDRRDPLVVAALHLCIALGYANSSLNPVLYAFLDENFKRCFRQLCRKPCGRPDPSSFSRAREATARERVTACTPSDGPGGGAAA
Sequence of Estrogen receptor beta (Q92731 whole entry): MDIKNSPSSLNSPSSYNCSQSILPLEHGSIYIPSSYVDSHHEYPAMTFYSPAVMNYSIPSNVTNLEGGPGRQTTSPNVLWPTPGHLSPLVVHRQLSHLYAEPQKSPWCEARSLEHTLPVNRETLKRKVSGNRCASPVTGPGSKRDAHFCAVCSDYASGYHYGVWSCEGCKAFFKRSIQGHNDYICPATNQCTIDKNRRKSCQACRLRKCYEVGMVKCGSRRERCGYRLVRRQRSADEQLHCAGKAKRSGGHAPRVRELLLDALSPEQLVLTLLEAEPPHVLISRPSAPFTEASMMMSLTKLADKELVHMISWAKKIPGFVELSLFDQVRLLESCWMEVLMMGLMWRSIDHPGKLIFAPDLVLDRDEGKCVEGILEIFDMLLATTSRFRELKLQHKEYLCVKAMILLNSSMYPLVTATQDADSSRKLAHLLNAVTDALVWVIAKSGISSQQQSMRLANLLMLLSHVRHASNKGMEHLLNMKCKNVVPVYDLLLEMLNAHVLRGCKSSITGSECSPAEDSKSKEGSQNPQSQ
Sequence of Mu-type opioid receptor (P35372 whole entry): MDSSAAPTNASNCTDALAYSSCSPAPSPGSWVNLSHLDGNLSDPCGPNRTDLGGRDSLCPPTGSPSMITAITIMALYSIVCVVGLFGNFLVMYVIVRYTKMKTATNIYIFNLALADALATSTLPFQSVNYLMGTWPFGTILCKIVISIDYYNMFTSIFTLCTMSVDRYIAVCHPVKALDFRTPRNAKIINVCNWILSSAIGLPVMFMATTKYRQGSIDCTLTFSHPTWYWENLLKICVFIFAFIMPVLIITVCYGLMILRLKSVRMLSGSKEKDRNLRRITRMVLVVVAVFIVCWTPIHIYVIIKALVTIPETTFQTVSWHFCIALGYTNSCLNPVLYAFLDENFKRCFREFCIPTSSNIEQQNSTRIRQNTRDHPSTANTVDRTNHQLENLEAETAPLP
Sequence of Heat shock cognate 71 kDa protein (P11142 whole entry): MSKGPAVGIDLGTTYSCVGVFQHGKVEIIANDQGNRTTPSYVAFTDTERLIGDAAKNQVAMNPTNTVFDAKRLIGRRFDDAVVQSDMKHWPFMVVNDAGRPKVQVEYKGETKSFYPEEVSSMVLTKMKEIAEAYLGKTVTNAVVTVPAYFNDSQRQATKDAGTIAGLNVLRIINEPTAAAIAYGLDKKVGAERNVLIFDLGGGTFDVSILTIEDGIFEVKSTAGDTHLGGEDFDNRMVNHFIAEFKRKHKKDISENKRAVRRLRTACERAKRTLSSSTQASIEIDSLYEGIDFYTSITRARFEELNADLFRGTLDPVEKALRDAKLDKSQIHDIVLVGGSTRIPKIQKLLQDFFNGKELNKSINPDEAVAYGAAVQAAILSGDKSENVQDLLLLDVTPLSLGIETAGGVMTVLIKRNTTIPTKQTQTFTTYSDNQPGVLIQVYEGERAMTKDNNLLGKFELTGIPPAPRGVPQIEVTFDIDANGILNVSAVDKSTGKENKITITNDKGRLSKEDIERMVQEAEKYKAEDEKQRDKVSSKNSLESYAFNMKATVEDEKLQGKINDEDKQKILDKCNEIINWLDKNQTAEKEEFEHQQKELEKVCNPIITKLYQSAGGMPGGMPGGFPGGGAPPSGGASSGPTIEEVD
Sequence of Lysine-specific demethylase 4C (Q9H3R0 whole entry): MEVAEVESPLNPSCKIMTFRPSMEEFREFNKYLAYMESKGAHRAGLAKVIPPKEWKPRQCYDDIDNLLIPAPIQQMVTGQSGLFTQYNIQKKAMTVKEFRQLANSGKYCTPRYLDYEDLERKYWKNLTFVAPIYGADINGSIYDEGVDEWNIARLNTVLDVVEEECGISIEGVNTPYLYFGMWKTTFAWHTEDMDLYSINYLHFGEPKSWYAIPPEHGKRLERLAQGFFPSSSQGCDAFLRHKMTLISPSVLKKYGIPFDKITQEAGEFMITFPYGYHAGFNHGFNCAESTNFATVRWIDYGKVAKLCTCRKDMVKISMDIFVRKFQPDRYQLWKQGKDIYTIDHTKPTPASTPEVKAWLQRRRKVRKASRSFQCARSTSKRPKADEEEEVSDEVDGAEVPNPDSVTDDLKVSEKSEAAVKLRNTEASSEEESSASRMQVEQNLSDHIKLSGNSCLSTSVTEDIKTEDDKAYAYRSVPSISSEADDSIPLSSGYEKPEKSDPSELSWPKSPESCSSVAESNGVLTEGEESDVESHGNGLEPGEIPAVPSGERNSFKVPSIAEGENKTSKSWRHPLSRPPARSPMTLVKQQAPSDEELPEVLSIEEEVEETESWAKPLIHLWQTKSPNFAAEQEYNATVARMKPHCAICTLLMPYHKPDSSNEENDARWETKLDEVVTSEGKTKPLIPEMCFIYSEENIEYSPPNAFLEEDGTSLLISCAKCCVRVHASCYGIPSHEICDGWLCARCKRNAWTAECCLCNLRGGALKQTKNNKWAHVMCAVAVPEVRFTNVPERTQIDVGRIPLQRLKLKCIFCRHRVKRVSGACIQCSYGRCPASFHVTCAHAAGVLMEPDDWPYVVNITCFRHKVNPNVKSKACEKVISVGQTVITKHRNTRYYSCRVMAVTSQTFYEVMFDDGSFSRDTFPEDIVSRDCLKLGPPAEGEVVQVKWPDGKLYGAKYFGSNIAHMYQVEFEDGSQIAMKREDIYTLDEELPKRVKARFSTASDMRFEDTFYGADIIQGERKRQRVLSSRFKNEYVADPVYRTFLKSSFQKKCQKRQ
Sequence of Intestinal-type alkaline phosphatase (Homo sapiens, UniProt P09923) (P09923 whole entry): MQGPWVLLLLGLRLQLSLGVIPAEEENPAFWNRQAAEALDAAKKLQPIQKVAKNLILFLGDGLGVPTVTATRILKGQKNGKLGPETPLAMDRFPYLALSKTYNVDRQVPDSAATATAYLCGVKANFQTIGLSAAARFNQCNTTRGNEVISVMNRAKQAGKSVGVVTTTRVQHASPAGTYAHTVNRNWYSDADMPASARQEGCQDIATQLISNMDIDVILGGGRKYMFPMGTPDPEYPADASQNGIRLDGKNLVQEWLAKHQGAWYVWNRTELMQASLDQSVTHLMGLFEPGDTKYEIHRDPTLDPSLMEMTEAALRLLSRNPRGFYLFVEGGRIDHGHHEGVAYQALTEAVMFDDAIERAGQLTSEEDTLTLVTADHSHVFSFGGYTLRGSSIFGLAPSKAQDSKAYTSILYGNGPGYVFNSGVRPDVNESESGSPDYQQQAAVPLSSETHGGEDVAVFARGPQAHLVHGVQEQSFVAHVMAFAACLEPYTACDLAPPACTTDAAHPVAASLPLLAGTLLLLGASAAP

Structure (SMILES): CC(c1ccccn1)N(CCN(C)C)C(S)=Nc1cccc(F)c1 (stereo not drawn)
- IC50 [1]: 64.7 µM (active)
- CC50 [2]: > 40 µM (active)

Structure (SMILES): Cc1ccc(C)c2c1NC(C(=O)O)C1CC=CC21 (stereo not drawn)
- IC50 [3]: > 100 µM (not active)
- IC50 [4]: > 100 µM (inactive)
- IC50 [5]: > 100 µM (not active)
- IC50 [6]: > 100 µM (not active)
- IC50 [7]: > 100 µM (inactive)
- IC50 [8]: > 100 µM (not active)

Structure (SMILES): CCCNC(=O)c1ccc2c(O)c(O)c(-c3ccsc3)nc2c1
- EC50 [9]: 10.6 µM (active)
- EC50 [10]: 8.96 µM (active)
- EC50 [11]: 11.7 µM (active)
- IC50 [12]: > 118 µM (inactive)
- IC50 [13]: > 118 µM (inactive)

Structure (SMILES): COc1ccc(NC(=O)C2CCCCN2N)cc1OCC(C)C (stereo not drawn)
- AC50 [14]: 27.6 µM (active)

Structure (SMILES): Oc1ccc2cc3c4cc(Br)ccc4nc-3oc2c1O
- EC50 [15]: 22.1 µM (active)
- EC50 [16]: 21.2 µM (active)
- IC50 [17]: 30 µM (active)
- IC50 [18]: 5.38 µM (not active)
- EC50 [19]: 24 µM (active)

Structure (SMILES): CC(C)c1ccc(CSc2nnc(-c3ccccn3)n2Cc2ccco2)cc1
- EC50 [20]: > 64 µM (inactive)
- EC50 [21]: > 32 µM (inactive)
- EC50 [22]: 2.84 µM (active)
- EC50 [23]: 5.97 µM (active)
